Data reported in PubChem BioAssay (NCI).
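Growth conditions: 96-well plates. Treatment: test compound, 48 hours, 5 concentrations. Analysis: linear interpolation between bracketing concentrations; unreached endpoints set to highest concentration. TGI denotes the concentration required for complete inhibition of growth.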

Columns and labels:
Test in all cases: DTP human tumour cell line panel, 48 h
SF-268 CNS = tested on: SF-268 CNS
HCC-2998 colon = tested on: HCC-2998 colon
MDA-MB-435 = tested on: MDA-MB-435
M14 melanoma = tested on: M14 melanoma
MALME-3M melanoma = tested on: MALME-3M melanoma
SN12C renal = tested on: SN12C renal
EKVX NSCLC = tested on: EKVX NSCLC
KM12 colon = tested on: KM12 colon
MOLT-4 leukemia = tested on: MOLT-4 leukemia
SK-MEL-2 melanoma = tested on: SK-MEL-2 melanoma
SW-620 colon = tested on: SW-620 colon
U251 CNS = tested on: U251 CNS
NCI-H23 lung = tested on: NCI-H23 lung
PC-3 prostate = tested on: PC-3 prostate
HT29 colon = tested on: HT29 colon
HS 578T breast = tested on: HS 578T breast
SNB-19 CNS = tested on: SNB-19 CNS
MDA-MB-231 breast = tested on: MDA-MB-231 breast
786-0 renal = tested on: 786-0 renal
A549 NSCLC = tested on: A549 NSCLC
SF-539 CNS = tested on: SF-539 CNS
OVCAR-3 ovarian = tested on: OVCAR-3 ovarian
SNB-75 CNS = tested on: SNB-75 CNS
HCT-15 colon = tested on: HCT-15 colon
T-47D breast = tested on: T-47D breast
BT-549 breast = tested on: BT-549 breast
K-562 leukemia = tested on: K-562 leukemia
UO-31 renal = tested on: UO-31 renal
A498 renal = tested on: A498 renal
OVCAR-4 ovarian = tested on: OVCAR-4 ovarian
HOP-62 NSCLC = tested on: HOP-62 NSCLC
OVCAR-5 ovarian = tested on: OVCAR-5 ovarian
CCRF-CEM leukemia = tested on: CCRF-CEM leukemia
RPMI-8226 leukemia = tested on: RPMI-8226 leukemia
HCT-116 colon = tested on: HCT-116 colon
DU-145 prostate = tested on: DU-145 prostate
RXF 393 renal = tested on: RXF 393 renal
CAKI-1 renal = tested on: CAKI-1 renal
SK-OV-3 ovarian = tested on: SK-OV-3 ovarian
UACC-257 melanoma = tested on: UACC-257 melanoma
NCI/ADR-RES ovarian = tested on: NCI/ADR-RES ovarian
SF-295 CNS = tested on: SF-295 CNS
NCI-H460 lung = tested on: NCI-H460 lung
ACHN renal = tested on: ACHN renal
UACC-62 melanoma = tested on: UACC-62 melanoma
LOX IMVI melanoma = tested on: LOX IMVI melanoma
COLO 205 colon = tested on: COLO 205 colon
MDA-N = tested on: MDA-N
NCI-H226 lung = tested on: NCI-H226 lung
SK-MEL-28 melanoma = tested on: SK-MEL-28 melanoma
OVCAR-8 ovarian = tested on: OVCAR-8 ovarian
MCF7 breast = tested on: MCF7 breast
NCI-H522 lung = tested on: NCI-H522 lung
IGROV1 ovarian = tested on: IGROV1 ovarian
HOP-92 NSCLC = tested on: HOP-92 NSCLC
TK-10 renal = tested on: TK-10 renal
SK-MEL-5 melanoma = tested on: SK-MEL-5 melanoma
SR leukemia = tested on: SR leukemia

Measured: TGI

O=c1[nH]nc(-c2ccccc2)n1/N=C/c1cccs1
79.5 µM: MDA-MB-435
93.8 µM: NCI/ADR-RES ovarian
95.8 µM: BT-549 breast
85.2 µM: RXF 393 renal
62 µM: OVCAR-4 ovarian
35.8 µM: COLO 205 colon
> 100 µM: SF-268 CNS | HCC-2998 colon | M14 melanoma | MALME-3M melanoma | SN12C renal | EKVX NSCLC | KM12 colon | MOLT-4 leukemia | SK-MEL-2 melanoma | SW-620 colon | U251 CNS | NCI-H23 lung | PC-3 prostate | HT29 colon | HS 578T breast | SNB-19 CNS | MDA-MB-231 breast | 786-0 renal | A549 NSCLC | SF-539 CNS | OVCAR-3 ovarian | SNB-75 CNS | HCT-15 colon | T-47D breast | K-562 leukemia | UO-31 renal | A498 renal | HOP-62 NSCLC | OVCAR-5 ovarian | CCRF-CEM leukemia | RPMI-8226 leukemia | HCT-116 colon | DU-145 prostate | CAKI-1 renal | SK-OV-3 ovarian | UACC-257 melanoma | SF-295 CNS | NCI-H460 lung | ACHN renal | UACC-62 melanoma | LOX IMVI melanoma | MDA-N | NCI-H226 lung | SK-MEL-28 melanoma | OVCAR-8 ovarian | MCF7 breast

O=c1[nH]c(=S)[nH]c2c1CN(CCCN1CCOCC1)CN2
52.3 µM: NCI-H522 lung
57.1 µM: PC-3 prostate
> 100 µM: SN12C renal | EKVX NSCLC | SW-620 colon | U251 CNS | IGROV1 ovarian | HT29 colon | HS 578T breast | SNB-19 CNS | 786-0 renal | A549 NSCLC | HOP-92 NSCLC | OVCAR-3 ovarian | HCT-15 colon | T-47D breast | BT-549 breast | K-562 leukemia | UO-31 renal | A498 renal | OVCAR-4 ovarian | HOP-62 NSCLC | OVCAR-5 ovarian | TK-10 renal | HCT-116 colon | DU-145 prostate | CAKI-1 renal | UACC-257 melanoma | NCI/ADR-RES ovarian | SF-295 CNS | SK-MEL-5 melanoma | MDA-N | NCI-H226 lung | SR leukemia | SK-MEL-28 melanoma | MCF7 breast
73.3 µM: HCC-2998 colon
92 µM: ACHN renal
69.6 µM: MDA-MB-435
96.4 µM: OVCAR-8 ovarian
66.4 µM: MDA-MB-231 breast
75.6 µM: RPMI-8226 leukemia
37.3 µM: UACC-62 melanoma
83 µM: MOLT-4 leukemia
42.3 µM: MALME-3M melanoma
38.6 µM: COLO 205 colon
58.2 µM: SF-539 CNS
59.6 µM: M14 melanoma
95.9 µM: KM12 colon
54.4 µM: NCI-H23 lung
62.4 µM: LOX IMVI melanoma
39.8 µM: SK-MEL-2 melanoma
87.2 µM: NCI-H460 lung
59.1 µM: SF-268 CNS
